The text below walks through data of US20140213641A1, “POLYMERIC NANOPARTICLES FOR DRUG DELIVERY” (INSTITUT QUIMIC DE SARRIA, priority 2011, published 2014).

Read-outs that look alike come from different tables or passages of the source. Where only a bound is given, the exact number is not on record here.

One series relates to CGL-1 cell line. The series is described as follows: Clonogenic assay (soft agar colony formation). The format is cell-based. The settings on record: 336 h, read-out: IC50 (concentration that inhibits 50% of clones); CGL1, experiment 3, serial dilutions 1:5, highest concentration 1000 nM, 14 days colony formation. The method, then:
(§1) A clonogenic assay was carried out to observe the toxicity of decorated paclitaxel-loaded nanoparticles compared with that of paclitaxel and empty nanoparticles on glioma cell lines and determine IC50 values in a long term effect (2 to 3 weeks growth). Nanoparticles with or without a surface-modifying agent (SEQ ID#5) were formed according to the method of example 2, with or without inclusion of paclitaxel.
(§2) Three cells lines were used. The CGL-1 cell line (Oncodesign, Dijon, France) was isolated from the TG-1 tumour subcutaneously (SC) implanted in Nude rat. 14 days were allowed for colony formation. The human U-87 MG cell line (American Type Culture Collection) was initiated from a […] glioblastoma from a person. 21 days were allowed for colony formation. Finally, the LN-229 cell line (American Type Culture Collection) was established in 1979 from cells taken from a patient with right frontal parieto-occipital glioblastoma. 14-21 days were allowed for colony formation.
(§3) The formulations tested were as follows: nanoparticles (stock solution NaCl 0.9%); paclitaxel-loaded nanoparticles (3.33% paclitaxel by weight; stock solution NaCl 0.9%); and paclitaxel (stock solution DMSO 100%). All test substances diluted at 100 μM in their respective vehicle to obtain stock solutions. Five concentrations (1:5 or 1:3 dilution steps) were used in triplicate. Formulations were obtained by diluting stock solutions at 100 μM in their respective vehicle to obtain a series of five concentrations in 1:5 or 1:3 dilution steps. Each solution was then further diluted at 1:20 with RPMI 1640 before final dilution at 1:10 into soft agar.
(§4) Repetitions were carried out for GCL-1 at 2 nM, 8 nM, 40 nM, 200 nM and 1000 nM and for LN-229 at 1.2 nM, 3.7 nM, 11 nM, and 33 nM. At least 2 independent experiments were carried out with top concentrations and dilution steps changed when needed. Cells were incubated for 14 to 21 days with the different treatments.
(§5) Results are given in Table 4 and indicate the % survival from the initial 300 clones. Vehicle results not included (100% survival in all cases). The results are shown graphically in FIGS. 4, 5 and 6. Clonogenic tests are based on clones of cells and not cells alone.

A further series relates to LN-229 cell line. The series is described as follows: Clonogenic assay (soft agar colony formation). The settings on record: Homo sapiens. The format is cell-based. The method, then:
as §1, §2, §3, §4, §5

In a further series the test system is U-87 MG cell line. The series is described as follows: Clonogenic assay (soft agar colony formation). The format is cell-based. The following applies: Homo sapiens. The method, then: as §1, §2, §3, §4, §5
For another series, the system named is CGL1. The following applies: cells treated for few days, read-out: Paclitaxel metabolic assay (historical data) IC50; cited from earlier work.
Series [1] relates to U87-MG. The settings on record: cells treated for few days, read-out: Paclitaxel metabolic assay (historical data) IC50; cited from earlier work.
For series [2], the system named is U87-MG. The following applies: read-out: literature IC50 values for paclitaxel alone; cited from earlier work.
A further series in a line: in vitro. The following applies: human. As to the method: (§6) An ATP-lite assay was carried out over 48 to 72 hours in order to determine cytotoxicity of paclitaxel-loaded nanoparticles comprising a surface-modifying agent compared with that of paclitaxel and empty nanoparticles on healthy brain cell lines and determine IC50 values.
(§7) The formulations tested were as follows: vehicle, empty nanoparticles, decorated paclitaxel-loaded nanoparticles (3.33% paclitaxel by weight; decoration: SEQ ID #5) paclitaxel and etoposide (etoposide is described as having mild toxicity in treatment of brain cancer).
(§8) Three cell lines were tested. Normal human astrocytes (NHA; Lonza) are primary-derived cultures of adherent cells with limited number of divisions. Normal human […] (NHNP; primary cell line; Lonza) are neurosphere growing cells with high number of division that differentiate in adherent […] cells and neurons under specific conditions (laminin coated plates, induction with differentiation factors). Finally, immortalized human neural progenitors (RenCells; Millipore) are fetal brain cells transformed with c-myc oncogene.
(§9) Cells were incubated with treatment for 24 hours (astrocytes) and 72 hours (progenitor cell lines)

Series [3] concerns Immortalized human neural progenitors (ReNcells). The settings on record: 72 h, 50 μM. The method, then:
as §6, §7, §8, §9

The subject of series [4] is Normal human neural progenitors (NHNP). The following applies: 72 h, 50 μM. As to the method: as §6, §7, §8, §9

As for `CC(=O)O[C@H]1C(=O)[C@@]2(C)[C@H]([C@H](OC(=O)c3ccccc3)[C@]3(O)C[C@H](OC(=O)[C@H](O)[C@@H](NC(=O)c4ccccc4)c4ccccc4)C(C)=C1C3(C)C)[C@]1(OC(C)=O)CO[C@@H]1C[C@@H]2O` [Paclitaxel, paclitaxel], the IC50 is 792 nM in the series with CGL-1 cell line; 7.3 nM with LN-229 cell line (LN-229, read-out: IC50 (concentration that inhibits 50% of clones), LN229, experiment 4, serial dilutions 1:3, highest concentration 100 nM, 14-21 days colony formation); 21 nM with LN-229 cell line (LN-229, read-out: IC50 (concentration that inhibits 50% of clones), LN229, experiment 5, serial dilutions 1:3, highest concentration 100 nM, 14-21 days colony formation); 2.6 nM with U-87 MG cell line (504 h, read-out: IC50 (concentration that inhibits 50% of clones), U87-MG, experiment 2, serial dilutions 1:5, highest concentration 500 nM, 21 days colony formation); 7.5 nM in the series with U-87 MG cell line (504 h, read-out: IC50 (concentration that inhibits 50% of clones), U87-MG, experiment 3, serial dilutions 1:5, highest concentration 500 nM, 21 days colony formation); 4 to 20 nM in the series with U-87 MG cell line (U87-MG cells, test repeated, read-out: IC50, repeated test). For the same molecule, the IC50 in the series on CGL1 was over 100 nM; in the series with U87-MG [1], about 10 nM; in the series on U87-MG [2] it was 10 to 20 nM.
`COc1cc([C@@H]2c3cc4c(cc3[C@@H](O[C@@H]3O[C@@H]5CO[C@@H](C)O[C@H]5[C@H](O)[C@H]3O)[C@H]3COC(=O)[C@H]23)OCO4)cc(OC)c1O` [Etoposide, etoposide]: the IC50 at 24 h in “in vitro” is about 50000 nM. The “% survival” value in series [3] is 3%; in series [4] it was 21%.
